# In patent publication US20100120700A1, “METHODS AND COMPOSITIONS FOR TREATING CERVICAL CANCER” (priority 2000, published 2010):
# Where “and” joins values, the source holds several entries; their conditions need not be identical. Equal entries are not always repeated.
# Legend:
# Experiment in all cases: G assay PDZ-PL binding
# DLG1 domain 3 = target: T1, DLG1 domain 3 (Homo sapiens, UniProt Q12959); details: peptide 10 uM, protein 5
# T1 construct: made in house; host or cells: E. coli (DH5alpha or BL-21)
# Protocol: (§1) (1) A PDZ-domain polypeptide is bound to a surface, e.g. a protein binding surface. In a preferred embodiment, a GST/PDZ fusion protein containing one or more PDZ domains is bound to a polystyrene 96-well plate. […] In one embodiment, the GST/PDZ fusion protein is bound via an anti-GST antibody that is coated onto the 96-well plate. Adequate binding to the plate can be achieved when: • a. 100 uL per well of 5 ug/mL goat anti-GST polyclonal antibody (Pierce) in PBS is added to a polystyrene 96-well plate (e.g., Num Polysorb) at 4° C. for 12 hours. • b. The plate is blocked by addition of 200 uL per well of PBS/BSA for 2 hours at 4° C. • c. The plate is washed 3 times with PBS. • d. 50 uL per well of 5 ug/mL GST/PDZ fusion protein) or, as a negative control, GST polypeptide alone (i.e. not a fusion protein) in PBS/BSA is added to the plate for 2 hours at 4° C. • e. The plate is again washed 3 times with PBS. […]
# (§2) (3) The binding of the biotinylated peptide to the GST/PDZ fusion protein surface can be detected using a variety of methods and detectors known to one of skill in the art. In one embodiment, 100 uL per well of 0.5 ug/mL streptavidin-horse radish peroxidase (HRP) conjugate dissolved in BSA/PBS is added and allowed to react for 20 minutes at 4° C. The plate is then washed 5 times with 50 mM Tris pH 8.0 containing 0.2% Tween 20, and developed by addition of 100 uL per well of HRP-substrate solution (TMB, Dako) for 20 minutes at room temperature (RT). The reaction of the HRP and its substrate is terminated by addition of 100 uL per well of 1M sulfuric acid, and the absorbance of each well of the plate is read at 450 nm.
# (§3) (4) Specific binding of a PL peptide and a PDZ domain polypeptide is determined by comparing the signal from the well(s) in which the PL peptide and PDZ domain polypeptide are combined, with the background signal(s). The background signal is the signal found in the negative control(s). Typically a specific or selective reaction will be at least twice background signal, more typically more than 5 times background, and most typically 10 or more times the background signal. In addition, a statistically significant reaction will involve multiple measurements of the reaction with the signal and the background differing by at least two standard errors, more typically four standard errors, and most typically six or more standard errors. Correspondingly, a statistical test (e.g. a T-test) comparing repeated measurements of the signal with-repeated measurements of the background will result in a p-value<0.05, more typically a p-value<0.01, and most typically a p-value<0.001 or less. As noted, in an embodiment of the “G” assay, the signal from binding of a given PL peptide to immobilized (surface bound) GST polypeptide alone is one suitable negative control (sometimes referred to as “B 1”). Because all measurement are done in multiples (i.e. at least duplicate) the arithmetic mean (or, equivalently, average.) of several measurements is used in determining the binding, and the standard error of the mean is used in determining the probable error in the measurement of the binding. The standard error of the mean of N measurements equals the square root of the following: the sum of the squares of the difference between each measurement and the mean, divided by the product of (N) and (N−1). Thus, in one embodiment, specific binding of the PDZ protein to the platebound peptide is determined by comparing the mean signal (“mean S”) and standard error of the signal (“SE”) for a particular PL-PDZ combination with the mean B1.
# (§4) For convenience, the assay conditions described in this section are referred to as the “G’ assay” and the “G” assay,” with the specific conditions described in the preceding section on G assays being referred to as the “G° assay.” The “G′ assay” is identical to the “G° assay” except at step (2) the peptide concentration is 10 uM instead of 20 uM. […]
# Densin domain 1 = target: T2, Densin domain 1 (Homo sapiens, UniProt Q96NW7); details: peptide 10 uM, protein 5
# T2 construct: made in house; host or cells: E. coli (DH5alpha or BL-21)
# Protocol: as §1, §2, §3, §4
# KIAA0147 domain 2 = target: T3, KIAA0147 domain 2 (Homo sapiens, UniProt Q14160); details: peptide 10 uM, protein 5
# T3 construct: made in house; host or cells: E. coli (DH5alpha or BL-21)
# Protocol: as §1, §2, §3, §4
# KIAA0147 domain 3 = target: T4, KIAA0147 domain 3 (Homo sapiens, UniProt Q14160); details: A450 nm, peptide 10 uM, protein 5
# T4 construct: made in house; host or cells: E. coli (DH5alpha, BL21 or JM109)
# Protocol: as §1, §2, §3, §4
# KIAA1095 domain 1 = target: T5, KIAA1095 domain 1 (Homo sapiens, UniProt Q9UPQ7); details: peptide 10 uM, protein 5
# T5 construct: made in house; host or cells: E. coli (DH5alpha, BL21 or JM109)
# Protocol: as §1, §2, §3, §4
# KIAA1634 domain 5 = target: T6, KIAA1634 domain 5 (Homo sapiens, UniProt Q5TCQ9); details: peptide 10 uM, protein 5
# T6 construct: made in house; host or cells: E. coli (DH5alpha or BL-21)
# Protocol: as §1, §2, §3, §4
# LIM-RIL domain 1 = target: T7, LIM-RIL domain 1 (Homo sapiens, UniProt P50479, A39S/DEL20-20); details: peptide 10 uM, protein 5
# T7 construct: made in house; host or cells: E. coli (DH5alpha or BL-21)
# Protocol: as §1, §2, §3, §4
# MUPP1 domain 7 = target: T8, MUPP1 domain 7 (Homo sapiens, UniProt O75970); details: peptide 10 uM, protein 5
# T8 construct: made in house; host or cells: E. coli (DH5alpha, BL21 or JM109)
# Protocol: as §1, §2, §3, §4
# PAR3 #182.1 domain 3 = target: T9, PAR3 #182.1 domain 3 (Homo sapiens, UniProt Q8TEW0); details: peptide 10 uM, protein 5
# T9 construct: made in house; host or cells: E. coli (DH5alpha or BL-21)
# Protocol: as §1, §2, §3, §4
# PSD95 domain 1 = target: T10, PSD95 domain 1 (Homo sapiens, UniProt P78352); details: peptide 10 uM, protein 5
# T10 construct: made in house; host or cells: E. coli (DH5alpha, BL21 or JM109), vector pGEX-3X
# Protocol: as §1, §2, §3, §4
# RGS12 domain 1 = target: T11, RGS12 domain 1 (Homo sapiens, UniProt O14924); details: peptide 10 uM, protein 5
# T11 construct: made in house; host or cells: E. coli (DH5alpha, BL21 or JM109), vector pGEX-3X
# Protocol: as §1, §2, §3, §4
# SITAC-18 domain 1 = target: T12, SITAC-18 domain 1 (Homo sapiens, UniProt Q9H190); details: peptide 10 uM, protein 5
# T12 construct: made in house; host or cells: E. coli (DH5alpha or BL-21)
# Protocol: as §1, §2, §3, §4
# ZO-1 domain 1 = target: T13, ZO-1 domain 1 (Homo sapiens, UniProt Q07157); details: peptide 10 uM, protein 5
# T13 construct: made in house; host or cells: E. coli (DH5alpha, BL21 or JM109)
# Protocol: as §1, §2, §3, §4
# T2 sequence (Q96NW7 1429-1537): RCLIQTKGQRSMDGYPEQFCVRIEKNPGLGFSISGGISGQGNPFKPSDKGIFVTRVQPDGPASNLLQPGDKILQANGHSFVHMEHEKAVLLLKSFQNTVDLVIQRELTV
# T13 sequence (Q07157 with tags, fused parts or gaps): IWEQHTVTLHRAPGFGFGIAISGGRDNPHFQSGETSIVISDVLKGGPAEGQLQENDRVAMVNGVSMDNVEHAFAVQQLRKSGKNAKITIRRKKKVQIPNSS
# T5 sequence (Q9UPQ7 with tags, fused parts or gaps): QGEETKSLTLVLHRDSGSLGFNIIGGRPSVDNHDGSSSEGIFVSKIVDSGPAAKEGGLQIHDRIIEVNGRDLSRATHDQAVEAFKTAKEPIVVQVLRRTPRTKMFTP
# T11 sequence (O14924 with tags, fused parts or gaps): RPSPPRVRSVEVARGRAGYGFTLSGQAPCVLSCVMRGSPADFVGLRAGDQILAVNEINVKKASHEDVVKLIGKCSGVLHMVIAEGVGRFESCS
# T9 sequence (Q8TEW0 579-681): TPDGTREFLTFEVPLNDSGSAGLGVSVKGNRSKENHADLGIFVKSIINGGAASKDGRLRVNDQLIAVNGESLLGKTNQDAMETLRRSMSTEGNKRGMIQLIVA
# T7 sequence (P50479 with tags, fused parts or gaps DEL20-20/A39S): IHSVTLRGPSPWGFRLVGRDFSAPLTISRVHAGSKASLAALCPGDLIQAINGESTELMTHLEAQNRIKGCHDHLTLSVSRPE
# T10 sequence (P78352 62-156): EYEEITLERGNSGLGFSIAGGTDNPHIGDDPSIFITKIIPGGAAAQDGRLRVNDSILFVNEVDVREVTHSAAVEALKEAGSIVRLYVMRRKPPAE
# T8 sequence (O75970 with tags, fused parts or gaps): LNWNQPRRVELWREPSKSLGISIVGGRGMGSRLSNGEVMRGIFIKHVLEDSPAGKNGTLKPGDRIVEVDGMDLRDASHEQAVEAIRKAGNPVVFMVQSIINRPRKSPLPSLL
# T6 sequence (Q5TCQ9 1040-1137 isoform Q5TCQ9-2): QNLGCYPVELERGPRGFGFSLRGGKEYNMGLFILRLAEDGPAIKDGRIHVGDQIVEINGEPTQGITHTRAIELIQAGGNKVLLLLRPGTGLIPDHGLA
# T12 sequence (Q9H190 104-195): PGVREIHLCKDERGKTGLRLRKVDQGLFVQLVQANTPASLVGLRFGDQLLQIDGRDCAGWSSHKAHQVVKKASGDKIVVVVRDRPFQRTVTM
# T3 sequence (Q14160 856-952): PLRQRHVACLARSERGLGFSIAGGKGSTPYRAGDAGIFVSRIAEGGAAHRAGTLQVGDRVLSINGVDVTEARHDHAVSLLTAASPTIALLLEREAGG
# T4 sequence (Q14160 with tags, fused parts or gaps): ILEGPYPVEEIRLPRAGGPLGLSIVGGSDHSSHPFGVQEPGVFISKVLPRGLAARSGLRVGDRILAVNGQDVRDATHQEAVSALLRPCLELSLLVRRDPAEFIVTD
substance,measurement,setting,value
"20 mer peptide corresponding to the C-terminus of HPV16 E6 (PDZ ligand), biotinylated in binding assays; ends SSRTRRETQL (SEQ ID NO: 13) [HPV E6 #16]",Ave OD,DLG1 domain 3; A450 nm,0.3975
same,OD S/N,DLG1 domain 3; vs GST only well,2.45
same,Ave OD,Densin domain 1; A450 nm,0.4205 and 0.3505
same,OD S/N,Densin domain 1; vs GST only well,1.96 and 1.82
same,Ave OD,KIAA0147 domain 2; A450 nm,0.3745
same,OD S/N,KIAA0147 domain 2; vs GST only well,2.46
same,Ave OD,KIAA0147 domain 3,2.0785 and 1.072
same,Ave OD,KIAA1095 domain 1; A450 nm,2.7045 and 1.711
same,OD S/N,KIAA1095 domain 1; vs GST only well,13.13 and 7.96
same,Ave OD,KIAA1634 domain 5; A450 nm,0.4025
same,OD S/N,KIAA1634 domain 5; vs GST only well,2.07
same,Ave OD,LIM-RIL domain 1; A450 nm,0.449
same,OD S/N,LIM-RIL domain 1; vs GST only well,1.60
same,Ave OD,MUPP1 domain 7; A450 nm,0.498
same,OD S/N,MUPP1 domain 7; vs GST only well,1.61
same,Ave OD,PAR3 #182.1 domain 3; A450 nm,0.445
same,OD S/N,PAR3 #182.1 domain 3; vs GST only well,2.07
same,Ave OD,PSD95 domain 1; A450 nm,0.942
same,OD S/N,PSD95 domain 1; vs GST only well,4.81
same,Ave OD,RGS12 domain 1; A450 nm,0.4295 and 0.661
same,OD S/N,RGS12 domain 1; vs GST only well,3.96 and 4.64
same,Ave OD,SITAC-18 domain 1; A450 nm,0.3975
same,OD S/N,SITAC-18 domain 1; vs GST only well,1.63
same,Ave OD,ZO-1 domain 1; A450 nm,0.4125 and 0.5215
same,OD S/N,ZO-1 domain 1; vs GST only well,1.83 and 2.83
